Source: patent EP4772530A1, “PEPTIDE TARGETING SOMATOSTATIN RECEPTOR, DRUG CONJUGATE AND USE THEREOF” (Mainline Biosciences (Shanghai) Co., Ltd., priority 2023, dated 2025)
Values joined by “and” are separate entries in the source; they are usually repeats but may differ in a detail not shown here. Equal values may be shown once. Where a name gives a salt, the structure may show the parent alone. *1 amine or outer side, *2 acyl side, *3 side chain or, on linkers, in order; H or OH if unused. Where a SMILES comes first, the peptide text is derived from it. Bridges are numbered along the chain shown (N, C = ends). Roman numbers before positions name the chains, in order. [ ]: non-standard residue; d: D form. The star is where a group is joined. Hexanoyl(6-succinimido-3yl) = O=C1CC([*:1])C(=O)N1CCCCCC(=O)[*:2]; Dolaproine = CO[C@@H]([C@@H]1CCCN1)[C@@H](C)C(=O)O; Dil = CC[C@H](C)[C@H](NC)[C@@H](CC(=O)O)OC; PABC = O=C(OCc1ccc(N[*:1])cc1)[*:2]; PEG6 = NCCOCCOCCOCCOCCOCCOCCC(=O)O; X2 = C[C@@H](N*)[C@@H](O)c1ccccc1; Cit = NC(=O)NCCC[C@H](N)C(=O)O; NMeV = CN[C@H](C(=O)O)C(C)C; AEEA = NCCOCCOCC(=O)O

Experiments:
SSTR2 = biological target: T1, SSTR2 (Homo sapiens, UniProt P30874); assay: SSTR2 cAMP test; type: cell-based; details: for EC50: SSTR2/CHO cells, Forskolin, cAMP activation rate; for activity at 50 µM: Max Dose 50000 nM
T1 construct: expressed in transfected cells; host or cells: CHO cells (SSTR2/CHO)
Procedure: • 1) Compound preparation: The test compound was diluted by 4-fold with DMSO to obtain 10 different concentration points. Approximately 100 nL of the diluted compound was then transferred to a cell reaction plate and centrifuged for later use. • 2) Cell preparation:The cultured SSTR2/CHO cells were collected into a sterile centrifuge tube, and the supernatant was discarded by centrifugation. • 3) The cells were resuspended in assay buffer, counted using a Vi-cell counter, and diluted with assay buffer. • 4) Approximately 100 nL of 100 µM Forskolin was transferred into the cell reaction plate using an Echo and centrifuged. Then, 10 µL of assay buffer containing the cells was added and incubated. • 5) Approximately 10 µL of cAMP detection reagent solution was added to the corresponding wells of the cell reaction plate, and incubated at room temperature in the dark. • 6) The plate was read using a microplate reader. The final value was determined as the ratio of OD at 665 nm to that at 615 nm. • 7) The cAMP value was calculated for each well: Activity (%)=(signal value of sample well - mean signal value of low-signal control wells)/ (mean signal value of high-signal control wells - mean signal value of low-signal control wells). Fitting was performed using the "Nonlinear regression (curve fit)-log(agonist) vs. response -- Variable slope" model in GraphPad Prism 5.0, with the log-transformed compound concentration on the x-axis and cAMP activation rate on the y-axis. The EC50 value of the sample was calculated accordingly. Table 2: SSTR2 cAMP Test Results

[1] = tested on: Human multiple myeloma MM.1S cells; assay: EX3.3 in vivo pharmacodynamics, MM.1S subcutaneous xenograft model; parameters: species or system CB17 SCID mice; details: for Tumor Volume (Mean ± SEM): Ixazomib Citrate 4 mg/kg, Oral Gavage, Twice Weekly
Procedure: Human multiple myeloma MM.1S cells were suspended and cultured in vitro in 1640 medium containing 10% fetal bovine serum, 100 U/mL penicillin, and 100 µg/mL streptomycin in a 5% CO2 incubator at 37°C. The suspended cells were collected by centrifugation twice a week and adherent cells were digested with trypsin-EDTA to prepare a cell suspension for subculture. When the cell saturation was 80%-90% and the cell number reached the requirement, the cells were collected, counted, and inoculated.
CB17 SCID mice, female, 6-8 weeks old, weighing 18-22 g, provided by Zhejiang Vital River Laboratory Animal Technology Co., Ltd.
Each mouse was subcutaneously injected with 100 µL of PBS containing 5×10^6 MM.1S cells + 100 µL of Matrigel (final volume: 200 µL) at the axilla of the right forelimb. At 20 days after injection, when the average tumor volume reached 109 mm^3, mice were grouped for dosing (vehicle control,Ixazomib Citrate, and Example 1 treatment groups, with 6 animals per group). The Ixazomib Citrate group was orally administered by gavage (4 mg/kg) twice a week; the vehicle control group (5%DMSO + 95% normal saline) and the Example 1 treatment group (1.75 mg/kg) were slowly intravenously injected for about 30 seconds each time, twice a week.
The experimental indicators were used to investigate whether tumor growth was inhibited, delayed, or cured. The tumor diameter was measured twice a week using a vernier caliper. The tumor volume was calculated as follows: V = 0.5a×b^2, where a and b were the long and short diameters of the tumor, respectively.
The anti-tumor efficacy of the drug was evaluated based on TGI (%) or relative tumor proliferation rate T/C (%). TGI (%) was the tumor growth inhibition rate. TGI (%) was calculated as follows: TGI (%)=[(1 -(mean tumor volume at the end of dosing in a certain treatment group - mean tumor volume at the start of dosing in the treatment group))/ (mean tumor volume at the end of dosing in the vehicle control group - mean tumor volume at the start of dosing in the vehicle control group)]× 100%.
T/C (%) was calculated as follows:T/C (%)= TRTV/ CRTV× 100 %. Based on the results of tumor measurement, the relative tumor volume (RTV) was calculated as follows: RTV = Vt/V0, where V0 was the mean tumor volume measured at the time of grouping (i.e. d0), and Vt was the mean tumor volume at a certain measurement. Data on the same day were taken for TRTV and CRTV.
Tumor weights were measured at the end of the experiment and T/Cweight was calculated, where Tweight and Cweight were tumor weights in the treatment and vehicle control groups, respectively.
Statistical analysis, including the mean and standard error (SEM) of tumor volume at each time point in each group (see Table 5-1 in Section 5.2 for specific data), was performed to evaluate differences between groups based on data from the treatment group on Day 18 post-dose at the end of the experiment. A t-test was used for comparison between two groups, and one-way ANOVA was used for comparison among three or more groups. If there was a significant difference in F value, the Games-Howell method was used for testing; if there was no significant difference in F value, the Dunnet (2-sided) method was used for analysis. All data were analyzed using SPSS 17.0.

[2] = 18 days after the start of dosing, Ixazomib Citrate 4 mg/kg oral gavage twice a week

T1 sequence (P30874 whole entry): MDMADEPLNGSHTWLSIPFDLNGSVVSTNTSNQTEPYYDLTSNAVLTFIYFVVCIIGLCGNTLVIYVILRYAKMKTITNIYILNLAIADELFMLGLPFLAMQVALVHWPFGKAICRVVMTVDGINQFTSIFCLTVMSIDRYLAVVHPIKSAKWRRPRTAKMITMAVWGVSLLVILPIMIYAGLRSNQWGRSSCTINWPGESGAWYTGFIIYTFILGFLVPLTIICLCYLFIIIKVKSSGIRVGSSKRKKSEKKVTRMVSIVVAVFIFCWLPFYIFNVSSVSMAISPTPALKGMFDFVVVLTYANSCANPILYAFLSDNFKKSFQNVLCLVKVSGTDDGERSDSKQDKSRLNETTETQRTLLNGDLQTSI

Q: How did the activity at 1 µM (SSTR2; Max Dose 1000 nM) turn out when C[C@@H](O)[C@@H]1NC(=O)[C@H](CCCCN)NC(=O)[C@H](Cc2c[nH]c3ccccc23)NC(=O)[C@H](Cc2ccccc2)NC(=O)[C@H](Cc2ccccc2)NC(=O)[C@H](CC(N)=O)NC(=O)[C@H](CCCCN)NC(=O)[C@@H](NC(=O)[C@@H]2CCCN2)CSSC[C@@H](C(=O)N[C@@H](CCCCN)C(=O)O)NC(=O)[C@H](CO)NC(=O)[C@H](CO)NC(=O)[C@H](Cc2ccccc2)NC1=O [Cortistatin14, reference compound] (H-PCKNFFWKTFSSCK-OH; disulfide 2-13) was run?
A: 99.7%

Q: And the EC50 (SSTR2)?
A: 1.38 nM

Q: How did the T/C [1, 2] turn out when CC(C)C[C@H](NC(=O)CNC(=O)c1cc(Cl)ccc1Cl)B1OC(=O)C(CC(=O)O)(CC(=O)O)O1 [Ixazomib Citrate] was run?
A: 38.38%

Q: What about the TGI [1, 2] of the same compound?
A: 71.76%

Q: What about the “Tumor Volume (Mean ± SEM)” value ([1]; Day 0) of the same compound?
A: 109 ± 6 mm3

Q: And the “Tumor Volume (Mean ± SEM)” value ([1]; Day 4)?
A: 245 ± 23 mm3

Q: What about the “Tumor Volume (Mean ± SEM)” value ([1]; Day 7) of the same compound?
A: 337 ± 25 mm3

Q: What about the “Tumor Volume (Mean ± SEM)” value ([1]; Day 11) of the same compound?
A: 452 ± 59 mm3

Q: And the “Tumor Volume (Mean ± SEM)” value ([1]; Day 14)?
A: 586 ± 100 mm3

Q: And the “Tumor Volume (Mean ± SEM)” value ([1]; Day 18)?
A: 781 mm3 and 781 ± 177 mm3

Q: What about the “Tumor Volume (Mean ± SEM)” value ([1]; Day 21) of the same compound?
A: 925 ± 226 mm3

Q: And the “Tumor Volume (Mean ± SEM)” value ([1]; Day 25)?
A: 1,139 ± 271 mm3

Q: And the “Tumor Volume (Mean ± SEM)” value ([1]; Day 28)?
A: 1,365 ± 331 mm3

Q: What does the source list for CC[C@H](C)[C@@H]([C@@H](CC(=O)N1CCC[C@H]1[C@H](OC)[C@@H](C)C(=O)N[C@H](C)[C@@H](O)c1ccccc1)OC)N(C)C(=O)[C@@H](NC(=O)[C@H](C(C)C)N(C)C(=O)OCc1ccc(NC(=O)[C@H](CCCNC(N)=O)NC(=O)[C@@H](NC(=O)CCCCCN2C(=O)CC(SC[C@H](NC(C)=O)C(=O)NCCOCCOCCOCCOCCOCCOCCC(=O)N[C@@H](CCCNC(=N)N)C(=O)N[C@@H](CCCNC(=N)N)C(=O)N[C@@H](CC(C)C)C(=O)N[C@@H](Cc3ccccc3)C(=O)N[C@H]3CSSC[C@@H](C(=O)N[C@H](C(=O)N[C@@H](Cc4c[nH]c5ccccc45)C(=O)N[C@@H](CCCNC(=N)N)C(=O)N[C@@H](CC(=O)O)C(N)=O)[C@@H](C)O)NC(=O)[C@H]([C@@H](C)O)NC(=O)[C@H](CCCCN)NC(=O)[C@@H](Cc4c[nH]c5ccccc45)NC(=O)[C@H](Cc4ccc(O)cc4)NC3=O)C2=O)C(C)C)cc1)C(C)C (stereo partly drawn) [Example 3, Ac-Cys(MC-Val-Cit-PABC-MMAE)-PEG6-Arg-Arg-Leu-Phe-[Cys-Tyr-D-Trp-Lys-Thr-Cys]-Thr-Trp-Arg-Asp-NH2] (I: Ac-C[PEG6]RRLFCY[dW]KTCTWRD-NH2 / II: V[Cit][PABC][NMeV]V[Dil][Dolaproine]-X2; linker I:1-II:N via Hexanoyl(6-succinimido-3yl); disulfide I:7-I:12)?
A: activity at 50 µM (SSTR2): 95.4%; EC50 (SSTR2): 559 nM

Q: What does the source list for CC[C@H](C)[C@@H]([C@@H](CC(=O)N1CCC[C@H]1[C@H](OC)[C@@H](C)C(=O)N[C@H](C)[C@@H](O)c1ccccc1)OC)N(C)C(=O)[C@@H](NC(=O)[C@H](C(C)C)N(C)C(=O)OCc1ccc(NC(=O)[C@H](CCCNC(N)=O)NC(=O)[C@@H](NC(=O)CCCCCN2C(=O)CC(SC[C@H](NC(=O)CCOCCOCCOCCOCCOCCOCCN)C(=O)NCCOCCOCCOCCOCCOCCOCCC(=O)N[C@@H](CCCNC(=N)N)C(=O)N[C@@H](CCCNC(=N)N)C(=O)N[C@@H](CC(C)C)C(=O)N[C@@H](Cc3ccccc3)C(=O)N[C@H]3CSSC[C@@H](C(=O)N[C@H](C(=O)N[C@@H](Cc4c[nH]c5ccccc45)C(=O)N[C@@H](CCCNC(=N)N)C(=O)N[C@@H](CC(=O)O)C(N)=O)[C@@H](C)O)NC(=O)[C@H]([C@@H](C)O)NC(=O)[C@H](CCCCN)NC(=O)[C@@H](Cc4c[nH]c5ccccc45)NC(=O)[C@H](Cc4ccc(O)cc4)NC3=O)C2=O)C(C)C)cc1)C(C)C (stereo partly drawn) [Example 2, PEG6-Cys(MC-Val-Cit-PABC-MMAE)-PEG6-Arg-Arg-Leu-Phe-[Cys-Tyr-D-Trp-Lys-Thr-Cys]-Thr-Trp-Arg-Asp-NH2] (I: H-[PEG6]C[PEG6]RRLFCY[dW]KTCTWRD-NH2 / II: V[Cit][PABC][NMeV]V[Dil][Dolaproine]-X2; linker I:2-II:N via Hexanoyl(6-succinimido-3yl); disulfide I:8-I:13)?
A: activity at 50 µM (SSTR2): 95.4%; EC50 (SSTR2): 477 nM

Q: What does the source list for CC[C@H](C)[C@@H]([C@@H](CC(=O)N1CCC[C@H]1[C@H](OC)[C@@H](C)C(=O)N[C@H](C)[C@@H](O)c1ccccc1)OC)N(C)C(=O)[C@@H](NC(=O)[C@H](C(C)C)N(C)C(=O)OCc1ccc(NC(=O)[C@H](CCCNC(N)=O)NC(=O)[C@@H](NC(=O)CCCCCN2C(=O)CC(SC[C@H](NC(C)=O)C(=O)NCCOCCOCC(=O)NCCOCCOCC(=O)NCCOCCOCC(=O)N[C@@H](CCCNC(=N)N)C(=O)N[C@@H](CCCNC(=N)N)C(=O)N[C@@H](CC(C)C)C(=O)N[C@@H](Cc3ccccc3)C(=O)N[C@H]3CSSC[C@@H](C(=O)N[C@H](C(=O)N[C@@H](Cc4c[nH]c5ccccc45)C(=O)N[C@@H](CCCNC(=N)N)C(=O)N[C@@H](CC(=O)O)C(N)=O)[C@@H](C)O)NC(=O)[C@H]([C@@H](C)O)NC(=O)[C@H](CCCCN)NC(=O)[C@@H](Cc4c[nH]c5ccccc45)NC(=O)[C@H](Cc4ccccc4)NC3=O)C2=O)C(C)C)cc1)C(C)C (stereo partly drawn) [Example 8, Ac-Cys(MC-Val-Cit-PABC-MMAE)-AEEA-AEEA-AEEA-Arg-Arg-Leu-Phe-[Cys-Phe-D-Trp-Lys-Thr-Cys]-Thr-Trp-Arg-Asp-NH2] (I: Ac-C[AEEA][AEEA][AEEA]RRLFCF[dW]KTCTWRD-NH2 / II: V[Cit][PABC][NMeV]V[Dil][Dolaproine]-X2; linker I:1-II:N via Hexanoyl(6-succinimido-3yl); disulfide I:9-I:14)?
A: activity at 50 µM (SSTR2): 98.4%; EC50 (SSTR2): 404 nM

Q: CC(C)C[C@H](NC(=O)[C@H](CCCNC(=N)N)NC(=O)[C@@H](N)CCCNC(=N)N)C(=O)N[C@@H](Cc1ccccc1)C(=O)N[C@H]1CSSC[C@@H](C(=O)N[C@H](C(=O)N[C@@H](Cc2c[nH]c3ccccc23)C(=O)N[C@@H](CCCNC(=N)N)C(=O)N[C@@H](CC(=O)O)C(N)=O)[C@@H](C)O)NC(=O)[C@H]([C@@H](C)O)NC(=O)[C@H](CCCCN)NC(=O)[C@@H](Cc2c[nH]c3ccccc23)NC(=O)[C@H](Cc2ccc(O)cc2)NC1=O [SEQ ID No. 1, H-Arg-Arg-Leu-Phe-[Cys-Tyr-D-Trp-Lys-Thr-Cys]-Thr-Trp-Arg-Asp-NH2] (H-RRLFCY[dW]KTCTWRD-NH2; disulfide 5-10) was tested. Which activity at 100 µM (SSTR2; Max Dose 100000 nM) did it give?
A: 98%

Q: What about the EC50 (SSTR2) of the same compound?
A: 217 nM
